From paper PMC6930660, “Synthesis and Comparative Structure–Activity Study of Carbohydrate-Based Phenolic Compounds as α-Glucosidase Inhibitors and Antioxidants” (Molecules, 2019)
“And” between values parts separate entries of the source, which are not always exact repeats. Identical values can stand only once.

Tests used:
[1] = DPPH radical scavenging assay (antioxidant activity); conditions: for EC50: MES-NaOH buffer pH 6.0, 15 min in the dark; for Antioxidant Trolox-eq (TE): trolox-equivalent (mol-trolox/mol-sample) = slope of sample / slope of trolox
Protocol: The antioxidant activity was assessed by employing the 2,2-diphenyl-1-picrylhydrazyl (DPPH) radical scavenging assay, according to the previously published method. In total, 100 μL of each sample (1000–10 μg/mL in 50%EtOH/ H2O ) or trolox (160–0 μM in 50% EtOH/ H2O ), and 50 μL of 2-(N-morpholino)ethanesulfonic acid (MES)-NaOH buffer (200 mM, pH = 6.0), and 50 μL of an 800 μM DPPH diluted in 99.5% EtOH were mixed in 96-well plates. Following shaking the microplate for 15 min in the dark, the absorbance was recorded at 520 nm using a microplate reader (Bio-Rad, Model 680). Effective percentages (%) were calculated as follows: Effective percentages (%) = 1−As/Ab ×100 where As is the absorbance of the sample and Ab is the absorbance of the blank (without samples, 50% EtOH/ H2O solution was used instead).
The trolox-equivalent (sample-mol/trolox-mol) was calculated as follows: Trolox−equivalent (mol−trolox/mol−sample) = Ss/St where Ss is the slope of the sample and St is the slope of trolox.

[2] = molecular target: rat α-glucosidase; assay: α-glucosidase inhibitory activity assay (FUJIFILM kit, maltose substrate, glucose measured by mutarotase-GOD method); assay type: biochemical; conditions: for IC50: rat α-glucosidase, 18.5 mM maltose, maleic anhydride buffer pH 6.0, 37 °C, 30 min, mean ± S.D. of n = 2; for α-glucosidase inhibitory activity, fold higher than acertannin (37): relative to acertannin (37)
Protocol: The α-glucosidase inhibitory activity of all samples was assayed utilizing a commercially available FUJIFILM α-glucosidase inhibitory activity assay kit. In total, 25 μL of each sample (25–2000 μg/mL in H2O ) or acarbose (0.5–8 μg/mL in H2O ), 50 μL of 18.5 mM maltose diluted in maleic anhydride buffer (100 mM, pH = 6.0), and 25 μL of the rat α-glucosidase solution were incubated in a micro-tube at 37 °C for 30 min. Subsequently, 400 μL of purified water was added to the solution and the reaction mixture was boiled for 3 min to deactivate α-glucosidase. The generated glucose was measured by LabAssay™ glucose (mutarotase-GOD method). In total, 100 μL of the reaction solution and 150 μL of the coloring solution were incubated in 96-well plates at 37 °C for 10 min, and the absorbance was recorded at 505 nm using a microplate reader (Bio-Rad, Model 680). The inhibition percentage was calculated using the following Equation: Inhibition percentage (%) = 1−As−Ab/Ac ×100 where As is the absorbance of the analyzed sample, Ab is the absorbance of the blank (immediate deactivation), and Ac is the absorbance of the control ([…]). Acarbose was used as the positive control.

Compound	EC50 ([1]; mean ± S.D. of n = 3) [µM]	IC50 [2] [µM]	α-glucosidase inhibitory activity relative to gallic acid ([2]; relative to gallic acid)	α-glucosidase inhibitory activity, fold higher than acertannin (37) [2]	Antioxidant Trolox-eq (TE) ([1]; mean ± S.D. of n = 3)	Antioxidant Trolox-eq (TE) ([1]; mean ± S.D. of n = 3, listed as methyl 3,4-dihydroxybenzoate)	Antioxidant Trolox-eq (TE) ([1]; mean ± S.D. of n = 3, listed as tellimagrandin I)	antioxidant activity (in words) [1]
COC(=O)c1ccc(O)c(O)c1 [Methyl 3,4-dihydroxybenzoate, methyl 3,4-dihydroxybenzoate, reference compound]	21.1 ± 1.08	> 300	–	–	2.20 ± 0.05	2.20	–	–
O=C(OC[C@H]1OC[C@H](O)[C@@H](O)[C@@H]1OC(=O)c1cc(O)c(O)c(O)c1)c1cc(O)c(O)c(O)c1 [Compound 40, 1,5-Anhydro-4,6-bis-O-(3′,4′,5′-trihydroxybenzoyl)-D-glucitol]	13 ± 1.12	26.6 ± 2.37	–	–	3.78 ± 0.33	–	–	–
O=C(O[C@H]1[C@H](O)[C@@H](O)CO[C@@H]1CO)c1cc(O)c(O)c(O)c1 [Compound 33, 1,5-Anhydro-4-O-(3′,4′,5′-trihydroxybenzoyl)-D-glucitol]	20.8 ± 1.54	143.9 ± 0.52	–	–	2.09 ± 0.19	–	–	–
O=C(OC[C@H]1OC[C@H](O)[C@@H](O)[C@@H]1O)c1cc(O)c(O)c(O)c1 [Compound 34, 1,5-Anhydro-6-O-(3′,4′,5′-trihydroxybenzoyl)-D-glucitol]	22.9 ± 1.61	127.1 ± 0.88	–	–	2.13 ± 0.12	–	–	–
COC(=O)c1cccc(O)c1 [Methyl 3-hydroxybenzoate, methyl 3-hydroxybenzoate, reference compound]	–	> 660	–	–	–	–	–	did not exhibit any notable activity
COC(=O)c1ccc(O)cc1 [Methyl 4-hydroxybenzoate, methyl 4-hydroxybenzoate, reference compound]	–	> 660	–	–	–	–	–	did not exhibit any notable activity
O=C(O[C@H]1[C@H](O)[C@@H](CO)OC[C@@H]1O)c1cc(O)c(O)c(O)c1 [Compound 32, 1,5-Anhydro-3-O-(3′,4′,5′-trihydroxybenzoyl)-D-glucitol]	20.5 ± 2.05	138 ± 1.5	–	–	2.38 ± 0.24	–	–	–
O=C(O[C@H]1[C@H](O)[C@@H](CO)OC[C@@H]1OC(=O)c1cc(O)c(O)c(O)c1)c1cc(O)c(O)c(O)c1 [Compound 35, 1,5-Anhydro-2,3-bis-O-(3′,4′,5′-trihydroxybenzoyl)-D-glucitol]	11.3 ± 0.98	20.5 ± 0.5	three-times higher	–	4.29 ± 0.23	–	–	–
O=C(O[C@H]1[C@H](O)[C@@H](OC(=O)c2cc(O)c(O)c(O)c2)CO[C@@H]1CO)c1cc(O)c(O)c(O)c1 [Compound 36, 1,5-Anhydro-2,4-bis-O-(3′,4′,5′-trihydroxybenzoyl)-D-glucitol]	14.3 ± 0.29	48.3 ± 1.25	–	–	3.36 ± 0.13	–	–	–
O=C(OC[C@H]1OC[C@H](O)[C@@H](OC(=O)c2cc(O)c(O)c(O)c2)[C@@H]1OC(=O)c1cc(O)c(O)c(O)c1)c1cc(O)c(O)c(O)c1 [Compound 44, 1,5-Anhydro-3,4,6-tris-O-(3′,4′,5′-trihydroxybenzoyl)-D-glucitol]	8.48 ± 0.21	12.6 ± 0.61	–	–	5.36 ± 0.20	–	–	–
O=C(O[C@H]1CO[C@H](CO)[C@@H](O)[C@@H]1O)c1cc(O)c(O)c(O)c1 [Compound 31, 1,5-Anhydro-2-O-(3′,4′,5′-trihydroxybenzoyl)-D-glucitol]	19.4 ± 1.02	95.1 ± 0.22	–	–	2.04 ± 0.08	–	–	–
COC(=O)c1cc(O)cc(O)c1 [Methyl 3,5-dihydroxybenzoate, methyl 3,5-dihydroxybenzoate, reference compound]	–	> 300	–	–	–	–	–	did not exhibit any notable activity
Cc1c(C)c2c(c(C)c1O)CCC(C)(C(=O)O)O2 (stereo not shown) [Trolox, reference compound]	49.4 ± 3.87	–	–	–	–	–	–	–
O=C(O[C@H]1[C@H](OC(=O)c2cc(O)c(O)c(O)c2)[C@@H](CO)OC[C@@H]1O)c1cc(O)c(O)c(O)c1 [Compound 38, 1,5-Anhydro-3,4-bis-O-(3′,4′,5′-trihydroxybenzoyl)-D-glucitol]	14.8 ± 0.56	91.4 ± 6.56	–	–	3.55 ± 0.42	–	–	–
COC(=O)c1cc(O)c(O)c(O)c1 [Methyl gallate, reference compound]	19.6 ± 0.11	90.5 ± 6.97	–	–	2.42 ± 0.27	–	–	–
O=C(OC[C@H]1OC[C@H](OC(=O)c2cc(O)c(O)c(O)c2)[C@@H](O)[C@@H]1O)c1cc(O)c(O)c(O)c1 [Compound 37, 1,5-Anhydro-2,6-bis-O-(3′,4′,5′-trihydroxybenzoyl)-D-glucitol]	15.2 ± 0.53	35.6 ± 2.58	–	–	3.32 ± 0.37	–	–	–

The remaining compounds from weak to strong by IC50 [2], led by results:

EC50 ([1]; mean ± S.D. of n = 3) [µM]	IC50 [2] [µM]	α-glucosidase inhibitory activity relative to gallic acid ([2]; relative to gallic acid)	α-glucosidase inhibitory activity, fold higher than acertannin (37) [2]	Compound	Antioxidant Trolox-eq (TE) ([1]; mean ± S.D. of n = 3)	Antioxidant Trolox-eq (TE) ([1]; mean ± S.D. of n = 3, listed as methyl 3,4-dihydroxybenzoate)	Antioxidant Trolox-eq (TE) ([1]; mean ± S.D. of n = 3, listed as tellimagrandin I)	antioxidant activity (in words) [1]
10.3 ± 0.76	9.34 ± 0.99	–	–	O=C(OC[C@H]1OC[C@H](OC(=O)c2cc(O)c(O)c(O)c2)[C@@H](O)[C@@H]1OC(=O)c1cc(O)c(O)c(O)c1)c1cc(O)c(O)c(O)c1 [Compound 43, 1,5-Anhydro-2,4,6-tris-O-(3′,4′,5′-trihydroxybenzoyl)-D-glucitol]	4.31 ± 0.35	–	–	–
> 70	9.34 ± 0.02	–	–	O=C(OC[C@H]1OC[C@H](OC(=O)c2cc(O)cc(O)c2)[C@@H](OC(=O)c2cc(O)cc(O)c2)[C@@H]1OC(=O)c1cc(O)cc(O)c1)c1cc(O)cc(O)c1 [Compound 56, 1,5-Anhydro-2,3,4,6-tetrakis-O-(3,5-dihydroxybenzoyl)-D-glucitol]	–	–	–	no antioxidant activity was observed
7.94 ± 0.39	6.72 ± 0.21	–	–	O=C(O[C@H]1[C@H](OC(=O)c2cc(O)c(O)c(O)c2)[C@@H](CO)OC[C@@H]1OC(=O)c1cc(O)c(O)c(O)c1)c1cc(O)c(O)c(O)c1 [Compound 41, 1,5-Anhydro-2,3,4-tris-O-(3′,4′,5′-trihydroxybenzoyl)-D-glucitol]	5.59 ± 0.26	–	–	–
8.09 ± 0.41	5.34 ± 0.55	–	–	O=C(OC[C@H]1OC[C@H](OC(=O)c2cc(O)c(O)c(O)c2)[C@@H](OC(=O)c2cc(O)c(O)c(O)c2)[C@@H]1O)c1cc(O)c(O)c(O)c1 [Compound 42, 1,5-Anhydro-2,3,6-tris-O-(3′,4′,5′-trihydroxybenzoyl)-D-glucitol]	5.75 ± 0.18	–	–	–
6.31 ± 0.27	3.37 ± 0.04	–	–	Tellimagrandin I [reference compound]	7.04 ± 0.37	–	7.04	–
6.99 ± 0.11	3.28 ± 0.16	–	–	O=C(OC[C@H]1OC[C@H](OC(=O)c2ccc(O)c(O)c2)[C@@H](OC(=O)c2ccc(O)c(O)c2)[C@@H]1OC(=O)c1ccc(O)c(O)c1)c1ccc(O)c(O)c1 [Compound 55, 1,5-Anhydro-2,3,4,6-tetrakis-O-(3′,4′-dihydroxybenzoyl)-D-glucitol]	6.54 and 6.54 ± 0.15	–	–	–
6.79 ± 0.21	3.22 ± 0.51	–	–	O=C(O[C@H]1[C@@H]2OC(=O)c3cc(O)c(O)c(O)c3-c3c(cc(O)c(O)c3O)C(=O)OC[C@H]2OC[C@@H]1OC(=O)c1cc(O)c(O)c(O)c1)c1cc(O)c(O)c(O)c1 [Compound 67, 1,5-Anhydro-2,3-bis-O-(3′,4′,5′-trihydroxybenzoyl)-4,6-O-hexahydroxydiphenyl-D-glucitol]	6.44 and 6.44 ± 0.24	–	–	–
6.61 ± 0.68	2.56 ± 0.1	–	more than 13 fold	2,3,4,6-tetrakis-O-(3′,4′,5′-Trihydroxybenzoyl)-D-glucitol [Compound 54]	6.77 ± 0.63	–	–	–
5.6 ± 0.28	1.68 ± 0.21	–	more than 13 fold	O=C(OC[C@H]1OC(O)[C@H](OC(=O)c2cc(O)c(O)c(O)c2)[C@@H](OC(=O)c2cc(O)c(O)c(O)c2)[C@@H]1OC(=O)c1cc(O)c(O)c(O)c1)c1cc(O)c(O)c(O)c1 (stereo partly drawn) [Compound 61, 2,3,4,6-tetrakis-O-(3′,4′,5′-Trihydroxybenzoyl)-α,β-D-glucopyranose]	8.33 ± 0.49	–	–	–
–	0.11 ± 0.02	–	–	C[C@H]1O[C@H](O[C@H]2[C@H](O)[C@@H](O)[C@@H](O[C@H]3[C@H](O)[C@@H](O)C(O)O[C@@H]3CO)O[C@@H]2CO)[C@H](O)[C@@H](O)[C@@H]1N[C@H]1C=C(CO)[C@@H](O)[C@H](O)[C@H]1O (stereo partly shown) [Acarbose, reference compound]	–	–	–	–
